System: diarrhea-predominant IBS subjects
Experiment: Study S241.3.006: weekly diary questions on adequate relief
Format: in vivo, human
Protocol: The study was conducted in 129 study centers in the United States. At total of 2080 subjects consented to participate, and 711 subjects were randomized. A total of 692 subjects were analyzed for efficacy and 701 subjects were analyzed for safety. Diagnosis and main criteria for inclusion were IBS subjects satisfying the Rome I criteria (1992); the diarrhea predominant sub-population of the Rome II criteria; and a minimum abdominal pain/discomfort, stool frequency and consistency determined during the run-in period. Subjects were treated with cilansetron 2 mg tablets given orally TID or matching placebo tablets given orally TID for 12 weeks double-blind treatment.
The primary efficacy parameter was the number of months that a subject was a responder for IBS symptoms (abdominal pain, abdominal discomfort, abnormal bowel habits) over the 12-week treatment period. A responder for a month (monthly responder) was defined as a subject who answered the weekly question with “yes” at least twice for that month.
Studies S24 1.3.OO6, S24 1.3.0 1 1, and S24 1.3.009 used the following efficacy measurements: • The subjects answered the following three questions with “yes” or “no” using a phone diary at the end of each week: • a) During the last week, did you experience adequate relief of your IBS symptoms, such as abdominal pain, abdominal discomfort, abnormal bowel habits? • b) During the last week, did you experience adequate relief of your abdominal pain and/or discomfort? • c) During the last week, did you experience adequate relief of your abnormal bowel habits? • The subjects rated the following symptoms using the phone diary at the end of each day: • abdominal pain/discomfort (five-point scale); • stool consistency (seven-point Bristol Stool Scale); • stool frequency (number of bowel movements each day); • urgency (five-point scale); • straining (yes or no); • feeling of incomplete defecation (yes or no); • bloating or feeling of abdominal distension (five-point scale). • In Studies S241 A006 and S241.3.009, subjects completed the IBS-QOL Survey at Baseline (Day 1) and at the end of treatment. In Study S24 1.3.0 1 1, subjects completed the IBS-QOL Survey at Baseline (Day 1), at the end of the three-month treatment period, and at the end of rerandomized treatment.
In all three pivotal efficacy studies, the primary and main secondary efficacy parameters were based on the weekly diary questions on adequate relief and included the following: • 1. Number of months (one month equals four weeks) that a subject was a responder for the weekly diary questions on adequate relief. A responder for a month (monthly responder) was defined as a subject who answered the weekly question with “yes” at least twice for that month. For Studies S241.3.006 and S241.3.011, the primary efficacy parameter was the number of months that a subject was a responder for IBS symptoms during the 12-week treatment period. The two main secondary efficacy parameters were the number of months that a subject was a responder for abdominal pain/discomfort and abnormal bowel habits during the 12-week treatment period. For Study S241.3.009, the number of months that a subject was a responder for the weekly diary questions on adequate relief during Months 1 to 3 (the first 12 weeks) and Months 1 to 6 (24-week) was an additional key secondary efficacy parameter. • 2. Overall responder rate for the weekly diary questions on adequate relief. A responder was defined as a subject who answered the weekly question with “yes” for at least half of the answers available with a minimum of four weeks treatment duration. If a subject had less than four weeks treatment duration, the subject was considered a non-responder. The overall responder rate was the percentage of responders within a treatment group. For Study S241.3.009, the primary efficacy parameter was the overall responder rate for IBS symptoms during the 26-week treatment period. […]

[1] = 2 mg TID, monthly LOCF, ITT N = 344
[2] = 2 mg TID, three-month treatment period, monthly LOCF, ITT N = 344
[3] = 2 mg TID, three-month treatment period, observed case, ITT N = 344
[4] = Baseline BMI: <30 kg/m^2, three-month treatment period, monthly LOCF, ITT, 2 mg TID
[5] = Baseline BMI: ≧30 kg/m^2, three-month treatment period, monthly LOCF, ITT, 2 mg TID
[6] = Baseline severity of IBS: non-severe, three-month treatment period, monthly LOCF, ITT, 2 mg TID
[7] = Baseline severity of IBS: non-severe, three-month treatment period, observed case, ITT, 2 mg TID
[8] = Baseline severity of IBS: severe, three-month treatment period, monthly LOCF, ITT, 2 mg TID
[9] = Baseline severity of IBS: severe, three-month treatment period, observed case, ITT, 2 mg TID

Structure (SMILES): Cc1nccn1C[C@H]1CCc2c(c3cccc4c3n2CCC4)C1=O [Cilansetron, (R)-(−)-4,5,6,8,9,10-hexahydro-10-[(2-methyl-1H-imidazol-1-yl)methyl]-11H-pyrido-[3,2,1-jk]-carbazol-11-one]
- Responders for one month, IBS symptoms (2 mg TID, 3 months): 13%
- Responders for one month, abdominal pain/discomfort (2 mg TID, 3 months): 12%
- Responders for one month, abnormal bowel habits (2 mg TID, 3 months): 12%
- Responders for three months, IBS symptoms (2 mg TID, 3 months): 35%
- Responders for three months, abdominal pain/discomfort (2 mg TID, 3 months): 40%
- Responders for three months, abnormal bowel habits (2 mg TID, 3 months): 38%
- Responders for two months, IBS symptoms (2 mg TID, 3 months): 15%
- Responders for two months, abdominal pain/discomfort (2 mg TID, 3 months): 14%
- Responders for two months, abnormal bowel habits (2 mg TID, 3 months): 15%
- Responders for zero months, IBS symptoms (2 mg TID, 3 months): 37%
- Responders for zero months, abdominal pain/discomfort (2 mg TID, 3 months): 34%
- Responders for zero months, abnormal bowel habits (2 mg TID, 3 months): 36%
- Responder rate, adequate relief of IBS symptoms, Each month of Months 1 to 3 [1]: 119 (35) n (%)
- Responder rate, adequate relief of IBS symptoms, Month 1 [1]: 176 (51) n (%)
- Responder rate, adequate relief of IBS symptoms, Month 2 [1]: 163 (47) n (%)
- Responder rate, adequate relief of IBS symptoms, Month 3 [1]: 169 (49) n (%)
- Responder rate, adequate relief of abdominal pain/discomfort, Each month of Months 1 to 3 [1]: 139 (40) n (%)
- Responder rate, adequate relief of abdominal pain/discomfort, Month 1 [1]: 192 (56) n (%)
- Responder rate, adequate relief of abdominal pain/discomfort, Month 2 [1]: 178 (52) n (%)
- Responder rate, adequate relief of abdominal pain/discomfort, Month 3 [1]: 183 (53) n (%)
- Responder rate, adequate relief of abnormal bowel habits, Each month of Months 1 to 3 [1]: 129 (38) n (%)
- Responder rate, adequate relief of abnormal bowel habits, Month 1 [1]: 180 (52) n (%)
- Responder rate, adequate relief of abnormal bowel habits, Month 2 [1]: 178 (52) n (%)
- Responder rate, adequate relief of abnormal bowel habits, Month 3 [1]: 173 (50) n (%)
- Subjects who were responders for One month, adequate relief of IBS symptoms [2]: 45 (13) n (%)
- Subjects who were responders for One month, adequate relief of abdominal pain/discomfort [2]: 42 (12) n (%)
- Subjects who were responders for One month, adequate relief of abnormal bowel habits [2]: 40 (12) n (%)
- Subjects who were responders for Three months, adequate relief of IBS symptoms [2]: 119 (35) n (%)
- Subjects who were responders for Three months, adequate relief of abdominal pain/discomfort [2]: 139 (40) n (%)
- Subjects who were responders for Three months, adequate relief of abnormal bowel habits [2]: 129 (38) n (%)
- Subjects who were responders for Two months, adequate relief of IBS symptoms [2]: 53 (15) n (%)
- Subjects who were responders for Two months, adequate relief of abdominal pain/discomfort [2]: 47 (14) n (%)
- Subjects who were responders for Two months, adequate relief of abnormal bowel habits [2]: 52 (15) n (%)
- Subjects who were responders for Zero months, adequate relief of IBS symptoms [2]: 127 (37) n (%)
- Subjects who were responders for Zero months, adequate relief of abdominal pain/discomfort [2]: 116 (34) n (%)
- Subjects who were responders for Zero months, adequate relief of abnormal bowel habits [2]: 123 (36) n (%)
- Overall responder rate, adequate relief of IBS symptoms [3]: 168 (49) n (%)
- Overall responder rate, adequate relief of abdominal pain/discomfort [3]: 179 (52) n (%)
- Overall responder rate, adequate relief of abnormal bowel habits [3]: 174 (51) n (%)
- Median adequate relief rate, IBS symptoms (3 months): 0.50
- Median adequate relief rate, abdominal pain/discomfort (3 months): 0.58
- Median adequate relief rate, abnormal bowel habits (3 months): 0.50
- Overall responder rate, IBS symptoms (3 months, observed case, ITT): 49%
- Overall responder rate, abdominal pain/discomfort (3 months, observed case, ITT): 52%
- Overall responder rate, abnormal bowel habits (3 months, observed case, ITT): 51%
- Number of months a subject was a responder: One month (Abdominal pain/discomfort) [4]: 26 (11) n (%)
- Number of months a subject was a responder: One month (Abnormal bowel habits) [4]: 27 (12) n (%)
- Number of months a subject was a responder: One month (IBS symptoms) [4]: 29 (13) n (%)
- Number of months a subject was a responder: Three months (Abdominal pain/discomfort) [4]: 96 (42) n (%)
- Number of months a subject was a responder: Three months (Abnormal bowel habits) [4]: 83 (36) n (%)
- Number of months a subject was a responder: Three months (IBS symptoms) [4]: 80 (35) n (%)
- Number of months a subject was a responder: Two months (Abdominal pain/discomfort) [4]: 29 (13) n (%)
- Number of months a subject was a responder: Two months (Abnormal bowel habits) [4]: 37 (16) n (%)
- Number of months a subject was a responder: Two months (IBS symptoms) [4]: 35 (15) n (%)
- Number of months a subject was a responder: Zero months (Abdominal pain/discomfort) [4]: 79 (34) n (%)
- Number of months a subject was a responder: Zero months (Abnormal bowel habits) [4]: 83 (36) n (%)
- Number of months a subject was a responder: Zero months (IBS symptoms) [4]: 86 (37) n (%)
- Number of months a subject was a responder: One month (Abdominal pain/discomfort) [5]: 16 (14) n (%)
- Number of months a subject was a responder: One month (Abnormal bowel habits) [5]: 13 (11) n (%)
- Number of months a subject was a responder: One month (IBS symptoms) [5]: 16 (14) n (%)
- Number of months a subject was a responder: Three months (Abdominal pain/discomfort) [5]: 43 (38) n (%)
- Number of months a subject was a responder: Three months (Abnormal bowel habits) [5]: 46 (40) n (%)
- Number of months a subject was a responder: Three months (IBS symptoms) [5]: 39 (34) n (%)
- Number of months a subject was a responder: Two months (Abdominal pain/discomfort) [5]: 18 (16) n (%)
- Number of months a subject was a responder: Two months (Abnormal bowel habits) [5]: 15 (13) n (%)
- Number of months a subject was a responder: Two months (IBS symptoms) [5]: 18 (16) n (%)
- Number of months a subject was a responder: Zero months (Abdominal pain/discomfort) [5]: 37 (32) n (%)
- Number of months a subject was a responder: Zero months (Abnormal bowel habits) [5]: 40 (35) n (%)
- Number of months a subject was a responder: Zero months (IBS symptoms) [5]: 41 (36) n (%)
- Number of months a subject was a responder: One month (Abdominal pain/discomfort) [6]: 9 (6) n (%)
- Number of months a subject was a responder: One month (Abnormal bowel habits) [6]: 16 (11) n (%)
- Number of months a subject was a responder: One month (IBS symptoms) [6]: 18 (12) n (%)
- Number of months a subject was a responder: Three months (Abdominal pain/discomfort) [6]: 72 (49) n (%)
- Number of months a subject was a responder: Three months (Abnormal bowel habits) [6]: 68 (46) n (%)
- Number of months a subject was a responder: Three months (IBS symptoms) [6]: 60 (41) n (%)
- Number of months a subject was a responder: Two months (Abdominal pain/discomfort) [6]: 25 (17) n (%)
- Number of months a subject was a responder: Two months (Abnormal bowel habits) [6]: 22 (15) n (%)
- Number of months a subject was a responder: Two months (IBS symptoms) [6]: 24 (16) n (%)
- Number of months a subject was a responder: Zero months (Abdominal pain/discomfort) [6]: 42 (28) n (%)
- Number of months a subject was a responder: Zero months (Abnormal bowel habits) [6]: 42 (28) n (%)
- Number of months a subject was a responder: Zero months (IBS symptoms) [6]: 46 (31) n (%)
- Overall responder rate, adequate relief of IBS symptoms [7]: 81 (55) n (%)
- Overall responder rate, adequate relief of abdominal pain/discomfort [7]: 89 (60) n (%)
- Overall responder rate, adequate relief of abnormal bowel habits [7]: 84 (57) n (%)
- Number of months a subject was a responder: One month (Abdominal pain/discomfort) [8]: 33 (17) n (%)
- Number of months a subject was a responder: One month (Abnormal bowel habits) [8]: 24 (12) n (%)
- Number of months a subject was a responder: One month (IBS symptoms) [8]: 27 (14) n (%)
- Number of months a subject was a responder: Three months (Abdominal pain/discomfort) [8]: 67 (34) n (%)
- Number of months a subject was a responder: Three months (Abnormal bowel habits) [8]: 61 (31) n (%)
- Number of months a subject was a responder: Three months (IBS symptoms) [8]: 59 (30) n (%)
- Number of months a subject was a responder: Two months (Abdominal pain/discomfort) [8]: 22 (11) n (%)
- Number of months a subject was a responder: Two months (Abnormal bowel habits) [8]: 30 (15) n (%)
- Number of months a subject was a responder: Two months (IBS symptoms) [8]: 29 (15) n (%)
- Number of months a subject was a responder: Zero months (Abdominal pain/discomfort) [8]: 74 (38) n (%)
- Number of months a subject was a responder: Zero months (Abnormal bowel habits) [8]: 81 (41) n (%)
- Number of months a subject was a responder: Zero months (IBS symptoms) [8]: 81 (41) n (%)
- Overall responder rate, adequate relief of IBS symptoms [9]: 87 (44) n (%)
- Overall responder rate, adequate relief of abdominal pain/discomfort [9]: 90 (46) n (%)

Source: patent US20090176817A1, “Method of Treatment of Diarrhea-Predominant Irritable Bowel Syndrome in a Subject” (priority 2005, published 2009)
